Measured values: the NIST ThermoML archive (doi:10.1021/acs.jced.5b00789)
Values joined by “and” are separate entries in the source; they are usually repeats but may differ in a detail not shown here. Equal entries are not always repeated. ± gives the expanded uncertainty stated by the source.

Conditions: Liquid

Question: Which mass density (293.2 K, 101.33 kPa) does the source give for `CC1CCCCC1` [methylcyclohexane] here?
Answer: 769.72 ± 8.2 kg/m3 and 769.91 ± 8.2 kg/m3 and 770.07 ± 8.2 kg/m3

Question: What about the mass density (303.2 K, 101.33 kPa) of the same compound?
Answer: 761.08 ± 8.4 kg/m3 and 761.27 ± 8.4 kg/m3 and 761.42 ± 8.4 kg/m3

Question: What about the mass density (313.2 K, 101.33 kPa) of the same compound?
Answer: 752.63 ± 8.6 kg/m3 and 752.82 ± 8.6 kg/m3 and 752.97 ± 8.6 kg/m3

Question: And the mass density (323.2 K, 101.33 kPa)?
Answer: 744.55 ± 8.8 kg/m3 and 744.71 ± 8.7 kg/m3 and 744.37 ± 8.8 kg/m3

Question: And the mass density (333.2 K, 101.33 kPa)?
Answer: 736.29 ± 8.9 kg/m3 and 736.47 ± 8.9 kg/m3 and 736.62 ± 8.9 kg/m3

Question: What about the mass density (343.2 K, 101.33 kPa) of the same compound?
Answer: 728.38 ± 9.1 kg/m3 and 728.56 ± 9.1 kg/m3 and 728.71 ± 9.1 kg/m3

Question: What about the mass density (353.2 K, 101.33 kPa) of the same compound?
Answer: 720.64 ± 9.3 kg/m3 and 720.82 ± 9.3 kg/m3 and 720.97 ± 9.3 kg/m3

Question: What about the mass density (363.2 K, 101.33 kPa) of the same compound?
Answer: 713.07 ± 9.4 kg/m3 and 713.24 ± 9.4 kg/m3 and 713.39 ± 9.4 kg/m3

Question: And the mass density (373.2 K, 101.33 kPa)?
Answer: 705.65 ± 9.6 kg/m3 and 705.82 ± 9.6 kg/m3 and 705.96 ± 9.6 kg/m3

Question: Which results are given for `Cc1ccccc1` [toluene]?
Answer: mass density (293.2 K): 867.3 ± 6.3 kg/m3 and 867.61 ± 6.3 kg/m3 and 867.8 ± 6.3 kg/m3; mass density (303.2 K): 855.63 ± 6.5 kg/m3 and 855.94 ± 6.5 kg/m3 and 856.12 ± 6.5 kg/m3; mass density (313.2 K): 844.27 ± 6.8 kg/m3 and 844.57 ± 6.8 kg/m3 and 844.75 ± 6.8 kg/m3; mass density (323.2 K): 833.51 ± 7 kg/m3 and 833.68 ± 7 kg/m3 and 833.21 ± 7 kg/m3; mass density (333.2 K): 822.43 ± 7.2 kg/m3 and 822.73 ± 7.2 kg/m3 and 822.9 ± 7.2 kg/m3; mass density (343.2 K): 811.93 ± 7.4 kg/m3 and 812.22 ± 7.4 kg/m3 and 812.39 ± 7.4 kg/m3; mass density (353.2 K): 801.69 ± 7.6 kg/m3 and 801.98 ± 7.6 kg/m3 and 802.15 ± 7.6 kg/m3; mass density (363.2 K): 791.71 ± 7.8 kg/m3 and 792 ± 7.8 kg/m3 and 792.16 ± 7.8 kg/m3; mass density (373.2 K): 781.97 ± 8 kg/m3 and 782.26 ± 8 kg/m3 and 782.42 ± 8 kg/m3

Question: What does the source list for `CCn1c2ccccc2c2ccccc21` [9-ethylcarbazole]?
Answer: mass density (343.2 K, 101.33 kPa): 1062.78 ± 6.6 kg/m3 and 1062.93 ± 6.6 kg/m3 and 1063.05 ± 6.6 kg/m3; mass density (353.2 K, 101.33 kPa): 1055.37 ± 6.4 kg/m3 and 1055.51 ± 6.4 kg/m3 and 1055.63 ± 6.4 kg/m3; mass density (363.2 K, 101.33 kPa): 1048.06 ± 6.3 kg/m3 and 1048.2 ± 6.3 kg/m3 and 1048.32 ± 6.3 kg/m3; mass density (373.2 K, 101.33 kPa): 1040.99 ± 6.1 kg/m3 and 1041.11 ± 6.1 kg/m3 and 1040.85 ± 6.1 kg/m3
